The record followed here is patent publication US10035800B2 (AbbVie Inc., priority 2013, dated 2018).

The target in one test is T1, BRD4 (BDI_K57-E168) (Homo sapiens, UniProt O60885).
T1 construct: BD1: amino acids K57-E168; made in house
Kind of test: TR-FRET bromodomain binding assay, first bromodomain of BRD4. The settings on record: 100 nM probe. In a few lines: (§1)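 Probe displacement by TR-FRET: 8 nM His-BRD4 bromodomain, 1 nM Eu-anti-His, Alexa647 BET-inhibitor probe at 100 nM (BDI) or 30 nM (BDII); 20 mM Na phosphate pH 6.0, 2% DMSO; 1 h RT. Ex 340, Em 495/520. IC50 from 4PL fit; Ki from IC50, probe Kd and probe concentration.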
Background: Time-resolved FRET reads energy transfer from a long-lived donor to a nearby acceptor.

The next test deals with T2, BRD4 (BDII_E352-M457) (Homo sapiens, UniProt O60885).
T2 construct: protocol; made in house
Description: TR-FRET bromodomain binding assay, second bromodomain of BRD4. The settings on record: 30 nM probe. In a few lines:
as §1

The subject of test [1] is breast cancer cell line MX-1. Kind of test: MX-1 cell line proliferation assay. Format: cell-based. Particulars: MX-1 cells, 3-day proliferation assay, Cell Titer Glo; read-out: Cellular proliferation: EC50. In a few lines:
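MX-1 cells at 5000/well, in RPMI 1640 with 10% FBS, were exposed to compounds for 3 days. Final concentrations ranged 3 μM–0.1 nM or 1 μM–0.03 nM, in 3-fold steps. Cell Titer Glo luminescence was normalized to DMSO and fitted sigmoidally for EC50; overall MSR 2.1.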

Test [2] deals with IL-6 (Interleukin-6) production. Kind of test: LPS (lipopolysaccharide) induced IL-6 production mouse assay. Format: in vivo, mice. The settings on record: oral administration 1 h before LPS 2.5 mg/kg ip, serum 2 h after LPS, p < 0.05 vs vehicle. As for the experimental part: LPS (Lipopolysaccharide) Induced IL-6 Production Mouse Assay
Compounds of the Examples listed in Table 2 were assayed for their ability to inhibit LPS (lipopolysaccharide) induced IL-6 (Interleukin-6) production in mice. Fox Chase SCID® female mice (Charles Rivers Labs, 5 per group) or CD1 female mice (5 per group) received an intraperitoneal challenge of lipopolysaccharide (2.5 mg/kg, L2630 E. coli 0111:B4) one hour after oral administration of compounds. Mice were euthanized 2 hours after lipopolysaccharide injection, blood was removed by cardiac puncture, and then the serum harvested from the blood samples was frozen at −80° C. On the day of the assay the serum samples were brought to room temperature and then diluted 1:20 in phosphate-buffered saline containing 2% bovine serum albumin. Interleukin-6 measurements were performed using a cytokine assay from Meso Scale Discovery (Gaithersburg, Md.) for mouse serum analysis according to the manufacturer's protocol and read on a SECTOR Imager 6000 (Meso Scale Discovery, Gaithersburg, Md.) instrument. Statistical analysis was performed using Prism software (version 5.0) incorporating Dunnett's one way ANOVA. The IL-6 mean and standard deviation of the group of vehicle treated animals were compared with the IL-6 mean and standard deviation of the group treated with drug. A p value <0.05 means that there is less than a 5% probability that the mean values in the two groups are equal.

Where [3] appears, read: TR-FRET assay protocol G (compound 0.92 μM-15 pM).
Setting [4] is: TR-FRET assay protocol E (compound 9.19 μM-150 pM).
[5] abbreviates: TR-FRET assay protocol B (compound 49.02 μM-15.63 nM).

A word on the Ki: it is the dissociation constant of the complex between target and ligand, obtained from inhibition or displacement. Low values mean tighter binding, high ones weaker binding. As to “4-(2,4-difluorophenyl)-10-methyl-7-((methylsulfonyl)methyl)-11-oxo-3,4,10,11-tetrahydro-1H-1,4,10-triazadibenzo[cd,f]azulene-5-carbonitrile [Example 206]”, the Ki on BRD4 (BDI_K57-E168) (setting [3]) was found to be 0.96 nM; at BRD4 (BDII_E352-M457) (setting [3]) it was 0.51 nM. Further, the EC50 in test [1] amounted to 1.41 nM. For the same molecule, the “% inhibition of LPS induced IL-6 production” value (“% inhibition” below) in test [2] (mouse strain CD1) was determined as 76%.
On to “4-((4,4-difluorocyclohexyl)methyl)-10-methyl-7-((methylsulfonyl)methyl)-3,4-dihydro-1H-1,4,10-triazadibenzo[cd,f]azulen-11(10H)-one [Example 27]”, for which the inhibitory constant (Ki) on BRD4 (BDI_K57-E168) (setting [4]) stood at 1.19 nM; on BRD4 (BDII_E352-M457) (setting [4]), 1.01 nM. Besides, the EC50 in test [1] is 1.27 nM. The “% inhibition” value in test [2] (mouse strain SCID) came to 79%.
Regarding “4-(cyclopropylmethyl)-10-methyl-7-((methylsulfonyl)methyl)-3,4-dihydro-1H-1,4,10-triazadibenzo[cd,f]azulen-11(10H)-one [Example 6]”, the inhibition constant (Ki) on BRD4 (BDI_K57-E168) (setting [4]) turned out to be 1.08 nM; at BRD4 (BDII_E352-M457) (setting [4]), 1.71 nM. In addition, the EC50 in test [1] was 2.01 nM. For the same molecule, the “% inhibition” value in test [2] (mouse strain SCID) is 64%.
As to “5,7-difluoro-10-methyl-4-((tetrahydrofuran-3-yl)methyl)-3,4-dihydro-1H-1,4,10-triazadibenzo[cd,f]azulen-11(10H)-one [Example 42]”, the Ki on BRD4 (BDI_K57-E168) (setting [3]) stood at 1.56 nM; on BRD4 (BDII_E352-M457) (setting [3]), 2.03 nM. Moreover, the EC50 in test [1] amounted to 5.44 nM. The “% inhibition” value in test [2] (mouse strain CD1) is listed as 86%.
As to “10-methyl-7-((methylsulfonyl)methyl)-4-((tetrahydro-2H-pyran-3-yl)methyl)-3,4-dihydro-1H-1,4,10-triazadibenzo[cd,f]azulen-11(10H)-one [Example 29]”, the inhibition constant Ki at BRD4 (BDI_K57-E168) (setting [4]) was 6.95 nM; at BRD4 (BDII_E352-M457) (setting [4]), 2.74 nM. Besides, the EC50 in test [1] turned out to be 1.03 nM. For the same molecule, the “% inhibition” value in test [2] (mouse strain SCID) is 76%.
In the case of `COCCC1c2c[nH]c3c(=O)n(C)cc(c23)-c2cc(CS(C)(=O)=O)ccc2N1CC1CC1` (racemic) [Example 15, 4-(cyclopropylmethyl)-3-(2-methoxyethyl)-10-methyl-7-((methylsulfonyl)methyl)-3,4-dihydro-1H-1,4,10-triazadibenzo[cd,f]azulen-11(10H)-one], the inhibitory constant (Ki) at BRD4 (BDI_K57-E168) (setting [4]) turned out to be 5.22 nM; on BRD4 (BDII_E352-M457) (setting [4]) it was 0.631 nM. Further, the EC50 in test [1] came to 8.75 nM. Further, the “% inhibition” value in test [2] (mouse strain SCID) was 68%.
For `Cn1cc2c3c(c[nH]c3c1=O)CN(C1CCCOC1)c1ccc(CS(C)(=O)=O)cc1-2` (racemic) [Example 182, 10-methyl-7-((methylsulfonyl)methyl)-4-(tetrahydro-2H-pyran-3-yl)-3,4-dihydro-1H-1,4,10-triazadibenzo[cd,f]azulen-11(10H)-one], the Ki at BRD4 (BDI_K57-E168) (setting [3]) is 1.31 nM; on BRD4 (BDII_E352-M457) (setting [3]) it was 2 nM. For the same molecule, the EC50 in test [1] worked out at 1.08 nM. The “% inhibition” value in test [2] (mouse strain CD1) turned out to be 77%.
Turning to `CCOC(=O)C1c2c[nH]c3c(=O)n(C)cc(c23)-c2cc(CS(C)(=O)=O)ccc2N1CC1CC1` (centres unmarked) [Example 7, ethyl 4-(cyclopropylmethyl)-10-methyl-7-((methylsulfonyl)methyl)-11-oxo-3,4,10,11-tetrahydro-1H-1,4,10-triazadibenzo[cd,f]azulene-3-carboxylate], the values for the Ki at BRD4 (BDI_K57-E168) (setting [5]) and on BRD4 (BDII_E352-M457) (setting [5]) were 51.1 nM and 26.7 nM, respectively. The EC50 in test [1] turned out to be 14.5 nM. For the same molecule, the “% inhibition” value in test [2] (mouse strain SCID) turned out to be 53%.
`Cn1cc2c3c(c[nH]c3c1=O)CN(c1ccc(F)cc1)c1ccc(S(C)(=O)=O)cc1-2` [Example 8, 4-(4-fluorophenyl)-10-methyl-7-(methylsulfonyl)-3,4-dihydro-1H-1,4,10-triazadibenzo[cd,f]azulen-11(10H)-one]: the inhibition constant Ki on BRD4 (BDI_K57-E168) (setting [4]) is 0.646 nM; on BRD4 (BDII_E352-M457) (setting [4]), 3.77 nM. Moreover, the EC50 in test [1] was 5.68 nM. In addition, the “% inhibition” value in test [2] (mouse strain SCID) came to 53%.
For the molecule `CCS(=O)(=O)Nc1cnc2c(c1)-c1cn(C)c(=O)c3[nH]cc(c13)CN2c1ccc(F)cc1F` [Example 23, N-(4-(2,4-difluorophenyl)-10-methyl-11-oxo-3,4,10,11-tetrahydro-1H-1,4,5,10-tetraazadibenzo[cd,f]azulen-7-yl)ethanesulfonamide], the Ki was 1.7 nM at BRD4 (BDI_K57-E168) (setting [4]) and 0.783 nM on BRD4 (BDII_E352-M457) (setting [4]). Besides, the EC50 in test [1] was 7 nM. The “% inhibition” value in test [2] (mouse strain SCID) turned out to be 54%.
The like results for `CCCCN1Cc2c[nH]c3c(=O)n(C)cc(c23)-c2cc(CS(C)(=O)=O)ccc21` [Example 24, 4-butyl-10-methyl-7-((methylsulfonyl)methyl)-3,4-dihydro-1H-1,4,10-triazadibenzo[cd,f]azulen-11(10H)-one] were, in that order, 0.963 nM, 0.801 nM, 1.07 nM and 78%.
Regarding `Cn1cc2c3c(c[nH]c3c1=O)CN(c1ncc(F)cn1)c1ccc(CS(C)(=O)=O)cc1-2` [Example 258, 4-(5-fluoropyrimidin-2-yl)-10-methyl-7-((methylsulfonyl)methyl)-3,4-dihydro-1H-1,4,10-triazadibenzo[cd,f]azulen-11(10H)-one], the inhibitory constant (Ki) amounted to 0.92 nM at BRD4 (BDI_K57-E168) (setting [3]) and 2.39 nM on BRD4 (BDII_E352-M457) (setting [3]). Also, in test [1], the EC50 amounted to 4.43 nM.
The corresponding values for `Cn1cc2c3c(c[nH]c3c1=O)CN(C(C#N)c1ccccc1)c1ccc(CS(C)(=O)=O)cc1-2` (centres unmarked) [Example 261] are 9.32 nM, 7.78 nM and over 1000 nM.
The corresponding values for `Cn1cc2c3c(c(C(=O)O)[nH]c3c1=O)CN(c1ccc(F)cc1F)c1ccc(CS(C)(=O)=O)cc1-2` [Example 263, 4-(2,4-difluorophenyl)-10-methyl-7-((methylsulfonyl)methyl)-11-oxo-3,4,10,11-tetrahydro-1H-1,4,10-triazadibenzo[cd,f]azulene-2-carboxylic acid] are 7.04 nM, 8.07 nM and over 1000 nM.
The corresponding values for `Cn1cc2c3c(c[nH]c3c1=O)CN(Cc1ccccc1OCc1ccccn1)c1ccc(CS(C)(=O)=O)cc1-2` [Example 264, 10-methyl-7-((methylsulfonyl)methyl)-4-(2-(pyridin-2-ylmethoxy)benzyl)-3,4-dihydro-1H-1,4,10-triazadibenzo[cd,f]azulen-11(10H)-one] are 6.97 nM, 1.53 nM and 899 nM.
`CCS(=O)(=O)c1ccc2c(c1)-c1cn(C)c(=O)c3[nH]cc(c13)CN2[C@H](C)c1ccccc1` [Example 265, (R)-7-(ethylsulfonyl)-10-methyl-4-(1-phenylethyl)-3,4-dihydro-1H-1,4,10-triazadibenzo[cd,f]azulen-11(10H)-one]: the Ki on BRD4 (BDI_K57-E168) (setting [3]) came to 25.6 nM; on BRD4 (BDII_E352-M457) (setting [3]), 4.21 nM. Further, the EC50 in test [1] was found to be 170 nM.
The like results for `Cn1cc(-c2[nH]c3c(=O)n(C)cc4c3c2CN(c2ccc(F)cc2F)c2ccc(S(C)(=O)=O)cc2-4)cn1` [Example 270, 4-(2,4-difluorophenyl)-10-methyl-2-(1-methyl-1H-pyrazol-4-yl)-7-(methylsulfonyl)-3,4-dihydro-1H-1,4,10-triazadibenzo[cd,f]azulen-11(10H)-one] were, in that order, 11 nM, 3.35 nM and 80.7 nM.
The like results for “N-(4-(4-fluorophenyl)-10-methyl-11-oxo-3,4,10,11-tetrahydro-1H-1,4,5,10-tetraazadibenzo[cd,f]azulen-7-yl)ethanesulfonamide [Example 22]” were, in that order, 0.875 nM, 0.95 nM and 1.71 nM.
The like results for “tert-butyl 4-(4-(4-fluorophenyl)-10-methyl-7-((methylsulfonyl)methyl)-11-oxo-3,4,10,11-tetrahydro-1H-1,4,10-triazadibenzo[cd,f]azulene-3-carbonyl)piperazine-1-carboxylate [Example 35]” were, in that order, 35.5 nM, 95.1 nM and 331 nM.
